What was measured:
[1] = logP measurement by HPLC on reversed phase columns (EEC directive 79/831 Annex V.A8); assay type: physicochemical; conditions: pH 2.7, pH 2,7 with 0,1 % formic acid in water and acetonitrile, linear gradient 10 % to 95 % acetonitrile
Plasmopara viticola = assay: Plasmopara test (grapevines) / preventive; assay type: in vivo; conditions: preventive spray, 100 ppm of active ingredient, evaluated 6 days after the inoculation, 100 % = no disease
Description: Plasmopara test (grapevines) / preventive
To produce a suitable preparation of active compound, 1 part by weight of active compound is mixed with the stated amounts of solvent and emulsifier, and the concentrate is diluted with water to the desired concentration.
To test for preventive activity, young plants are sprayed with the preparation of active compound at the stated rate of application. After the spray coating has dried on, the plants are inoculated with an aqueous spore suspension of Plasmopara viticola and then remain for 1 day in an incubation cabinet at approximately 20°C and a relative atmospheric humidity of 100 %. The plant is subsequently placed for 4 days in a greenhouse at approximately 21°C and a relative atmospheric humidity of approximately 90 %. The plants are then misted and placed for 1 day in an incubation cabinet.
The test is evaluated 6 days after the inoculation. 0 % means an efficacy which corresponds to that of the untreated control, while an efficacy of 100 % means that no disease is observed.

Row | Structure (SMILES) | chromatographic logP [1] | Efficacy in % (Plasmopara viticola) [%]
1 | CCOC(=O)C(C#N)=C(SC(C)C(C)C)c1cccnc1Cl (centres unmarked) [Example 1] | 3.8 | 88
2 | CCOC(=O)C(C#N)=C(OC(C)C(CC)CC)c1cccnc1Cl (centres unmarked) [Example 2] | 3.96 | 
3 | CCOC(=O)C(C#N)=C(SC(C)CC)c1cn(C)nc1C(F)F (centres unmarked) [Example 3] | 3.11 | 
4 | CCOC(=O)C(C#N)=C(OC(C)CC(C)(C)C)c1cccnc1Cl (centres unmarked) [Example 4] | 3.92 | 
5 | CCOC(=O)C(C#N)=C(OC(C)C(C)(C)C)c1cccnc1Cl (centres unmarked) [Example 5] | 3.57 | 
6 | CCOC(=O)C(C#N)=C(SC(C)C(C)C)c1ccnn1C(F)F (centres unmarked) [Example 6] | 3.59 | 
7 | CCOC(=O)C(C#N)=C(OC(C)C(C)C)c1cccnc1Cl (centres unmarked) [Example 7] | 3.27 | 
8 | CCOC(=O)C(C#N)=C(OC(C)COC)c1cccnc1Cl (centres unmarked) [Example 8] | 2.44 | 
9 | CCOC(=O)C(C#N)=C(OC(C)C1=NOCCO1)c1cccnc1Cl (centres unmarked) [Example 9] | 2.2 | 
10 | C#CCC(C)OC(=C(C#N)C(=O)OCC)c1cccnc1Cl (centres unmarked) [Example 10] | 2.61 | 
11 | CCOC(=O)C(C#N)=C(OC(C)c1ccc(Cl)nc1)c1cccnc1Cl (centres unmarked) [Example 11] | 2.9 | 
12 | CCOC(=O)C(C#N)=C(OC(C)C(C)C)c1cn(C)nc1C(F)F (centres unmarked) [Example 12] | 2.98 | 
13 | CCOC(=O)C(C#N)=C(O[C@H](C)C(=O)OCC)c1cccnc1Cl [Example 13] | 2.71 | 
14 | CCOC(=O)C(C#N)=C(OC(C)C(C)C)c1ccnn1C(F)F (centres unmarked) [Example 15] | 3.25 | 
15 | CCOC(=O)C(C#N)=C(OC(C)C(C)C)c1scnc1Cl (centres unmarked) [Example 16] | 3.37 | 
16 | CCOC(=O)C(C#N)=C(SC(C)c1ccccn1)c1cccnc1Cl (centres unmarked) [Example 17] | 2.51 | 
17 | CCOC(=O)C(C#N)=C(SC(C)C(C)C)c1cn(C)nc1C(F)F (centres unmarked) [Example 19] | 3.3 | 92
18 | CCOC(=O)C(C#N)=C(O[C@@H](C)C(=O)OC)c1cccnc1Cl [Example 20] | 2.4 | 
19 | CCOC(=O)C(C#N)=C(OC1CCCCC1C)c1cccnc1Cl (centres unmarked) [Example 21] | 3.74 | 
20 | CCOC(=O)C(C#N)=C(SC(C)C(C)C)c1scnc1Cl (centres unmarked) [Example 22] | 3.79 | 
21 | CCOC(=O)C(C#N)=C(OC(C)c1ccccn1)c1cccnc1Cl (centres unmarked) [Example 23] | 2.39 | 
22 | CCOC(=O)C(C#N)=C(OC1(C(=O)OCC)CC1)c1cccnc1Cl [Example 24] | 2.9 | 
23 | CCCC(C)SC(=C(C#N)C(=O)OCC)c1cccnc1Cl (centres unmarked) [Example 25] | 3.78 | 
24 | CCOC(=O)C(C#N)=C(OC(C)C=C(Cl)Cl)c1cccnc1Cl (centres unmarked) [Example 26] | 3.33 | 

— patent EP2510787A1, “Propenoates as fungicides” (Bayer CropScience AG, priority 2011, dated 2012)
